Like-named read-outs stand apart in the source and are kept apart here.
Columns and labels:
term placental explants = test: Term placental explants treated with LPS and Cytochalasin-D, TNF-α ELISA; assay type: cell-based, human; settings: 2 LPS doses and Cytochalasin-D (9.8 uM)
Description: Human first and second trimester placentas from elective termination of normal pregnancies (8 to 23 weeks gestation) were collected. The second trimester placenta samples were obtained after elective terminations induced by mechanical evacuation only. Human first and second trimester and term placentas were also collected from vaginal delivery or C-section. A placental explant system was used to preserve the normal cellular architecture. Placental samples from term and third trimester were collected from the maternal side as previously described (Kim et al., 2018, Am J Reprod Immunol, December 26: e13080). Placental explants were processed immediately after collection and prepared as previously described (Peltier et al., 2013, Am J Reprod Immunol, 69: 142e149). […]
Supernatant cytokine concentrations were analyzed using Ready-Set-Go™ ELISA kits (eBioscience; San Diego, Calif.). The measured cytokines included TNF-a, IL-1b and IL-10 and the concentrations were expressed in pg/ml.
For this reason, the kit was utilized for all of the following experiments to isolate EVs. […] Media were collected and analyzed. […] THP-1 cell culture media was collected after 24 h, and TNF-α levels were analyzed by ELISA (FIG. 2E). […]

human placenta = settings: cited from earlier work

| SMILES | TNF-α production (term placental explants) [pg/mL] | effect on LPS induced inflammation and TNF-α production (human placenta; Speer et al., 2017, listed as pentoxifylline) | effect on LPS induced inflammation and TNF-α production (human placenta; Speer et al., 2017) |
| --- | --- | --- | --- |
| C=C1[C@@H](C)[C@H]2[C@H](Cc3ccccc3)NC(=O)[C@]23[C@H](OC(C)=O)/C=C/[C@@](C)(O)C(=O)[C@@H](C)C/C=C/[C@H]3[C@@H]1O [Cytoclasin-D, Cytochalasin-D] | 18979 ± 7626 | – | – |
| CC(=O)CCCCn1c(=O)c2c(ncn2C)n(C)c1=O [Pentoxixyline, pentoxifylline] | – | inhibits LPS induced TNF-α | inhibited LPS induced inflammation and TNF-α production |

From patent US20210355539A1, “BIOMARKERS FROM MINIMALLY INVASIVE SAMPLING REFLECTIVE OF THE PLACENTAL IMMUNE MICROENVIRONMENT” (NEW YORK UNIVERSITY, priority 2020, published 2021)
